Tests used:
human Runx2 gene = experiment: Real-time RT-PCR of Runx2 mRNA in cultured HDF; format: cell-based; settings: induction medium, 28 days (FIG. 17)
Protocol: The culture was performed as in “1” above by adding the stated compounds.
Then, total RNA was collected from the cells using ISOGEN II, and cDNA was synthesized using ReverTra Ace qPCR RT Master Mix. Real-time PCR Master Mix, and a TaqMan probe and primers specific to human Runx2 gene were added, and real-time RT-PCR was performed using an AB7300 Real-Time PCR System.

[1] = system: normal human dermal fibroblast (HDF) strain; experiment: Alizarin Red S staining of calcified bone matrix in fibroblasts cultured in induction medium; settings: for Alizarin Red S staining intensity (OD 550-650 nm), ability to produce calcified matrix: 28 days (FIG. 10); for Alizarin Red S staining images and intensity (OD 550-650 nm), ability to produce calcified matrix: 28 days (FIG. 19)
[2] = system: human alkaline phosphatase (ALP) gene; experiment: Real-time RT-PCR of ALP mRNA in cultured HDF; format: cell-based; settings: 10% FBS induction medium, 28 days, relative to normal human fibroblasts = 1 (FIG. 13)
Protocol: Then, total RNA was collected from the cells using ISOGEN II, and cDNA was synthesized using ReverTra Ace qPCR RT Master Mix. Real-time PCR Master Mix, TaqMan probes, specific primers, and cDNA were mixed, and real-time RT-PCR was performed using an AB7300 Real-Time PCR System to quantify the mRNA of Runx2, osteocalcin (OC), and alkaline phosphatase (ALP) genes. […] Further, RNA was harvested from human osteoblasts, and the same analysis was performed.
The culture was performed as in “2-1” above by adding the stated compounds.
Then, total RNA was collected from the cells using ISOGEN II, and cDNA was synthesized using ReverTra Ace qPCR RT Master Mix. Real-time PCR Master Mix, and a TaqMan probe and primers specific to a human alkaline phosphatase (ALP) gene were added, and real-time RT-PCR was performed using an AB7300 Real-Time PCR System. Furthermore, total RNA was extracted from osteoblasts from normal human bone, and analysis was performed in a similar manner.
Furthermore, total RNA was extracted from osteoblasts from normal human bone, and analysis was performed in a similar manner.
Twenty-eight days after the culture, the mRNA expression of ALP gene in the cells in each well was analyzed by real-time RT-PCR, as in “2-3” above. Furthermore, total RNA was extracted from osteoblasts from normal human bone, and analysis was performed in a similar manner.

[3] = system: Normal human white preadipocytes (HWPs); experiment: Alizarin Red S staining, induction from normal human white preadipocytes; format: cell-based; settings: induction medium with 10% FBS, 21 days (FIG. 23)
human osteocalcin (OC) = experiment: Real-time RT-PCR of osteocalcin (OC) mRNA in cultured HDF; format: cell-based; settings: 5% human serum induction medium, 28 days (FIG. 16)
Protocol: The culture was performed as in “2-6” above by adding the stated compounds.
Then, total RNA was collected from the cells using ISOGEN II, and cDNA was synthesized using ReverTra Ace qPCR RT Master Mix. Real-time PCR Master Mix, and a TaqMan probe and primers specific to human osteocalcin (OC) were added, and real-time RT-PCR was performed using an AB7300 Real-Time PCR System.

Row | Structure (SMILES) | Runx2 mRNA expression by real-time RT-PCR (human Runx2 gene) | Alizarin Red S staining intensity (OD 550-650 nm), ability to produce calcified matrix ([1]; induction medium with 10% FBS) | ALP mRNA expression by real-time RT-PCR [2] | Alizarin Red S staining images and intensity (OD 550-650 nm), ability to produce calcified matrix [1] | Alizarin Red S staining images, ability to produce calcified matrix [3] | Alizarin Red S staining images and intensity, ability to produce calcified matrix ([1]; induction medium with 5% human serum, 28 days (FIG. 12)) | Alizarin Red S staining images and intensity, ability to produce calcified matrix ([1]; induction medium with 10% FBS, 28 days (FIG. 11)) | osteocalcin (OC) mRNA expression by real-time RT-PCR (human osteocalcin (OC))
1 | CC(C)c1c(C(=O)Nc2ccccc2)c(-c2ccccc2)c(-c2ccc(F)cc2)n1CC[C@@H](O)C[C@@H](O)CC(=O)O [AS, atorvastatin] | induced the mRNA expression of Runx2 gene | induced the ability to produce calcified matrix | induced the mRNA expression of ALP gene | – | – | – | – | –
2 | O=C(O)c1ccc2c(c1)nc(Nc1cccc(Cl)c1)c1ccncc12 [CX-4945] | – | – | – | no effect | – | – | – | –
3 | NC(=O)c1ccc(-c2nc(-c3ccc4c(c3)OCCO4)c(-c3ccccn3)[nH]2)cc1 [D4476, 4-[4-(2,3-dihydro-1,4-benzodioxin-6-yl)-5-(2-pyridinyl)1H-imidazol-2-yl]-benzamide] | – | induced the ability to produce calcified matrix | induced the mRNA expression of ALP gene | induced the ability to produce calcified matrix | strongly induced the ability to produce calcified matrix | induced a higher ability to produce calcified matrix | induced the ability to produce calcified matrix | –
4 | Nc1nccc2c1ncn2[C@@H]1C=C(CO)[C@@H](O)[C@H]1O [DZNep, 3-deazaneplanocin A] | – | – | – | induced the ability to produce calcified matrix | – | – | – | –
5 | CC[C@H](C)C(=O)O[C@H]1C[C@@H](C)C=C2C=C[C@H](C)[C@H](CC[C@@H]3C[C@@H](O)CC(=O)O3)[C@H]21 [LS, lovastatin] | induced the mRNA expression of Runx2 gene | induced the ability to produce calcified matrix | induced the mRNA expression of ALP gene | – | – | – | – | –
6 | CC(C)c1nc(N(C)S(C)(=O)=O)nc(-c2ccc(F)cc2)c1/C=C/[C@@H](O)C[C@@H](O)CC(=O)O [RS, rosuvastatin] | induced the mRNA expression of Runx2 gene | induced the ability to produce calcified matrix | induced the mRNA expression of ALP gene | – | – | – | – | induced the mRNA expression of osteocalcin
